Source: ChEMBL document CHEMBL5120879, “Medicinal Chemistry Strategies for the Development of Bruton's Tyrosine Kinase Inhibitors against Resistance” (J Med Chem, 2022)

Experiments:
[1] = Intrinsic clearance in mouse; assay type: ADME, organism-based; conditions: in vivo
[2] = target: T1, Tyrosine-protein kinase BTK (Homo sapiens, UniProt Q06187); test: Inhibition of wild-type BTK (unknown origin)
[3] = target: T2, Tyrosine-protein kinase BTK (Homo sapiens, UniProt Q06187, C481S); test: Inhibition of BTK C481S mutant (unknown origin)
T2 sequence (Q06187 2-659 C481S limits assumed): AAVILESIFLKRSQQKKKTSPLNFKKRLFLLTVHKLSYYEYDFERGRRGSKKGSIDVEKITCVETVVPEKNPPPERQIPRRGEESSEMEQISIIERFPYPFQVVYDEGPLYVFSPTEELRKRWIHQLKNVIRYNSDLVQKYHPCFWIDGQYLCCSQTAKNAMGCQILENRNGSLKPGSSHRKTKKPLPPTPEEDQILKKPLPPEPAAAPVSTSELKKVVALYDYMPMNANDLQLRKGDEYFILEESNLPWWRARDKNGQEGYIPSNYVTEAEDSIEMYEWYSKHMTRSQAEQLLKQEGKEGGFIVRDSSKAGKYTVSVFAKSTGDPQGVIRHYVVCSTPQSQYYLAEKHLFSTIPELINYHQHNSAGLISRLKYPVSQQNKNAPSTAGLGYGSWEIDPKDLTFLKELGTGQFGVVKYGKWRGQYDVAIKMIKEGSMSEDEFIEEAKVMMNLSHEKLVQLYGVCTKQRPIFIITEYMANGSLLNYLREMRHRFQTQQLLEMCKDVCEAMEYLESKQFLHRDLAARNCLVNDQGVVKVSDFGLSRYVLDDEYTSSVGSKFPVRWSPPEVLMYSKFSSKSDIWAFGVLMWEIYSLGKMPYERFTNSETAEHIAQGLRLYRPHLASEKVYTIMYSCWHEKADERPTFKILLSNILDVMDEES

[4] = target: T1, Tyrosine-protein kinase BTK; test: Inhibition of BTK (unknown origin)
[5] = target: T2, Tyrosine-protein kinase BTK; test: Induction of degradation of Ibrutinib-resistant BTK C481S mutant (unknown origin)
[6] = Inhibition of BTK C481Y mutant (unknown origin); set-up: species or system Homo sapiens
[7] = target: von Hippel-Lindau disease tumor suppressor/Tyrosine-protein kinase BTK (Homo sapiens, UniProt Q06187+P40337); test: PROTAC activity at VHL/BTK (unknown origin) assessed as induction of BTK degradation; assay type: protein assay
Sequence of von Hippel-Lindau disease tumor suppressor/Tyrosine-protein kinase BTK (Q06187 whole entry): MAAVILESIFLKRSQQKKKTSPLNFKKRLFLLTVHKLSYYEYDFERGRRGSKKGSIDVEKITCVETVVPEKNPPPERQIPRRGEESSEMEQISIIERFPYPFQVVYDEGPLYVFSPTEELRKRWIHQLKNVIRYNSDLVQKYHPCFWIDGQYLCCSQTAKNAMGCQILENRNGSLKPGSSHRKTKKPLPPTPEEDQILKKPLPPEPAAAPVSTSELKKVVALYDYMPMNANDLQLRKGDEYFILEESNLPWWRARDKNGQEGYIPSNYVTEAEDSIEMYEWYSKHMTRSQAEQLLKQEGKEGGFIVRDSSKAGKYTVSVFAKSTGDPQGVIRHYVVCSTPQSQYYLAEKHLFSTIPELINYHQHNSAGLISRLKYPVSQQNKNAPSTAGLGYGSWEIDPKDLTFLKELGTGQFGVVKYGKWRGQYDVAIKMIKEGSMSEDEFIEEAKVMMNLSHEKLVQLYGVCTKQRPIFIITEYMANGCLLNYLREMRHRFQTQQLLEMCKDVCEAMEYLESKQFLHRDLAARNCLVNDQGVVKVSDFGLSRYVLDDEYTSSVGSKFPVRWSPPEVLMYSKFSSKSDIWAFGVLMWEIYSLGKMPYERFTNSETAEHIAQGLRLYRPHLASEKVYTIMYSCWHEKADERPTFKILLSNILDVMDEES
Sequence of von Hippel-Lindau disease tumor suppressor/Tyrosine-protein kinase BTK (P40337 whole entry): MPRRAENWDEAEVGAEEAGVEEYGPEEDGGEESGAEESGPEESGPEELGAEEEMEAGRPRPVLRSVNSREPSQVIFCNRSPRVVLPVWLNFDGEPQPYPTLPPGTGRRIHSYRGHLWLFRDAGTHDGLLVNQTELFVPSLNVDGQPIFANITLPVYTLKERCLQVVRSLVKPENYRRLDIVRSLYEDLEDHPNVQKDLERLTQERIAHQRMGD

[8] = target: Protein cereblon/Tyrosine-protein kinase BTK (Homo sapiens, UniProt Q06187+Q96SW2); test: PROTAC activity at CRBN/BTK (unknown origin) assessed as BTK degradation; assay type: protein assay
Sequence of Protein cereblon/Tyrosine-protein kinase BTK (Q06187 whole entry): as the sequence (Q06187 whole entry) above
Sequence of Protein cereblon/Tyrosine-protein kinase BTK (Q96SW2 whole entry): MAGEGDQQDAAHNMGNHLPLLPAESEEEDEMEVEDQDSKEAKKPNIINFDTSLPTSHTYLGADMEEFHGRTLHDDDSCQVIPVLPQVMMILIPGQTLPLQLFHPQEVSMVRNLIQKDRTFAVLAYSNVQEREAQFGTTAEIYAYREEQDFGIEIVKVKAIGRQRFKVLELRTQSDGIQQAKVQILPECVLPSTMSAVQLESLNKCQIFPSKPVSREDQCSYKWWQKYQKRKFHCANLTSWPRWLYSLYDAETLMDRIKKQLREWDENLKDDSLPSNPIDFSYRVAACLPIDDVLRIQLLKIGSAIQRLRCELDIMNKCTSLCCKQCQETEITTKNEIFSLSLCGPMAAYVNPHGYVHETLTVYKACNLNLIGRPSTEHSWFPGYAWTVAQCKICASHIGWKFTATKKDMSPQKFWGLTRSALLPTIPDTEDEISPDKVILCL

[9] = Inhibition of cell proliferation in human HBL1 cells harboring Ibrutinib-resistant BTK C481S mutant assessed as cell growth inhibition; assay type: functional
[10] = target: T1, Tyrosine-protein kinase BTK; test: Induction of degradation of BTK in human Ramos cells at 10 nM relative to control; assay type: cell-based
[11] = target: T1, Tyrosine-protein kinase BTK; test: Induction of degradation of BTK in human Ramos cells at 100 nM relative to control; assay type: cell-based

T1 sequence (Q06187 whole entry): as the sequence (Q06187 whole entry) above

Nc1ncnc2c1c(-c1ccc(Oc3ccccc3)cc1)nn2C1CCN(CCOCCOCC(=O)Nc2ccc3c(c2)C(=O)N(C2CCC(=O)NC2=O)C3=O)CC1 (stereo not drawn)
CLint scaled [1]: 1660 mL/min/kg

O=C(c1ccc(Oc2ccccc2)cc1Cl)c1c[nH]c2ncnc(N[C@H]3CCC[C@H](CO)O3)c12
IC50 [2]: 0.85 nM | IC50 [3]: 0.39 nM

Cc1cc(C(N)=O)c2[nH]c3cc(C(C)(C)O)ccc3c2c1-c1cccc(-n2c(=O)[nH]c3c(F)cccc3c2=O)c1O
IC50 [4]: 0.3 nM

COc1cc(Nc2c(C#N)cnc3cc(OCCCN4CCN(CCOCCOCCNc5cccc6c5C(=O)N(C5CCC(=O)NC5=O)C6=O)CC4)c(OC)cc23)c(Cl)cc1Cl (stereo not drawn)
DC50 [5]: 30 nM

Nc1nccn2c([C@@H]3CC[C@H]4CN(CCO)CC(=O)N4C3)nc(-c3ccc(C(=O)Nc4cc(C(F)(F)F)ccn4)cc3)c12
IC50 [6]: 0.1 nM

Nc1ncnc2c1c(-c1ccc(Oc3ccccc3)cc1)nn2C1CCN(CCOCCOCCOc2ccc3c(c2)CN(C2CCC(=O)NC2=O)C3=O)CC1 (stereo not drawn)
DC50 [7]: 7.9 nM

Nc1ncnc2c1c(-c1ccc(Oc3ccccc3)cc1)nn2[C@@H]1CCCN(Cc2cn(CCOCCOCCOCCNc3cccc4c3CN(C3CCC(=O)NC3=O)C4=O)nn2)C1 (stereo partly drawn)
DC50 [8]: 29 nM | GI50 [9]: 30 nM

Nc1ncnc2c1c(-c1ccc(Oc3ccccc3)cc1)nn2[C@@H]1CCCN(C(=O)c2cn(CCOCCOCCOCCNc3cccc4c3C(=O)N(C3CCC(=O)NC3=O)C4=O)nn2)C1 (stereo partly drawn)
DC50 [8]: 6.3 nM | Activity [10]: 73% | Activity [11]: 89% | GI50 [9]: 28 nM
